According to patent publication US4426519A, “7-(2-Amino-4-thiazolyl)-acetamido cephalosporanic acids” (Roussel Uclaf, priority 1979, dated 1984):
Where a name gives a salt, the structure may show the parent alone. Read-outs that look alike come from different tables or passages of the source.

Key:
Experiment in all cases: MIC, dilution in liquid medium
Assay type in all cases: cell-based
[1] = system: Bacillus subtilis ATCC 6 633
Protocol: (§1) The method used was a dilution of a liquid medium where a series of tubes received the same quantity of a sterile nutritive media and increasing doses of the test compounds were placed therein. Then each tube was seeded with a bacterial strain and was incubated for 24 to 48 hours at 37° C. in an oven. The increasing inhibition was determined by transillulumination to determine the minimum inhibiting concentration (MIC in μg/ml) and the results are reported in the following Tables.

[2] = system: Enterobacter cloacae 681
Protocol: as §1

[3] = system: Escherichia Coli Exp. TO26 B6
Protocol: as §1

[4] = system: Escherichia Coli Resistant Gentamycine, Tobramycine R 55 123 D
Protocol: as §1

[5] = system: Escherichia Coli Resistant Tetracycline ATCC 11 303
Protocol: as §1

[6] = system: Escherichia Coli sensitive Tetracycline ATCC 9 637
Protocol: as §1

[7] = system: Klebsiella pneumoniae 2 536 Resistant Gentamycine
Protocol: as §1

[8] = system: Klebsiella pneumoniae Exp. 52 145
Protocol: as §1

[9] = system: Proteus mirabilis (indol-) A 235
Protocol: as §1

[10] = system: Providencia Du 48
Protocol: as §1

[11] = system: Pseudomonas 3935 Exp.Sensible Gentamycine
Protocol: as §1

[12] = system: Salmonella typhimurium 420; details: Salmonella enterica
Protocol: as §1

[13] = system: Serratia Resistant Gentamycine 2 532
Protocol: as §1

[14] = system: Staphylococcus aureus ATCC 6 538 Pen Sensitive
Protocol: as §1

[15] = system: Staphylococcus aureus UC 1 128 Pen-resistant
Protocol: as §1

[16] = system: Staphylococcus aureus exp.n°54 146
Protocol: as §1

[17] = system: Streptococcus pyogenes A 561
Protocol: as §1

[18] = Enterobacter cloacae, 681, 24 h
[19] = Enterobacter cloacae, 681, 48 h

SMILES	MIC ([1]; ATCC6, 24 h, read-out: MIC) [µg/mL]	MIC ([1]; ATCC6, 48 h) [µg/mL]	MIC [2, 18] [µg/mL]	MIC [2, 19] [µg/mL]	MIC ([3]; 24 h) [µg/mL]	MIC ([3]; 48 h) [µg/mL]	MIC ([5]; ATCC11, 24 h) [µg/mL]	MIC ([5]; ATCC11, 48 h) [µg/mL]	MIC ([6]; ATCC9, 48 h) [µg/mL]	MIC ([7]; 48 h) [µg/mL]	MIC ([9]; 24 h) [µg/mL]	MIC ([9]; 48 h) [µg/mL]	MIC ([10]; DU48, 48 h, read-out: MIC) [µg/mL]	MIC ([12]; 24 h) [µg/mL]	MIC ([13]; 24 h) [µg/mL]	MIC ([14]; ATCC6, 48 h) [µg/mL]	MIC ([15]; UC1, 24 h) [µg/mL]	MIC ([15]; UC1, 48 h) [µg/mL]	MIC ([17]; A561, 24 h) [µg/mL]	MIC ([17]; A561, 48 h) [µg/mL]	further results
Cn1nnnc1SCC1=C(C(=O)O)N2C(=O)C(NC(=O)/C(=N\OCCSC(=N)N)c3csc(N)n3)C2SC1 (stereo not drawn) [Example 4, Internal salt of the syn isomer of 3-[(1-methyl-1H-tetrazol-5-yl)-thiomethyl]-7-[2-(2-amino-4-thiazolyl)-2-(2-aminoiminomethylthioethoxyimino)-acetamido]-ceph-3-eme-4-carboxylic acid]	0.5	2	3	3	1	1	0.2	0.2	2	5	0.2	0.5	10	2	1	2	2	2	0.05	0.05	MIC ([4]; 24 h): 1 µg/mL; MIC ([4]; 48 h): 1 µg/mL; MIC ([6]; ATCC9, 24 h): 2 µg/mL; MIC ([7]; 24 h): 5 µg/mL; MIC ([8]; EXP.52145, 24 h): 1 µg/mL; MIC ([8]; EXP.52145, 48 h): 1 µg/mL; MIC ([10]; DU48, 24 h): 5 µg/mL; MIC ([11]; 24 h): 10 µg/mL; MIC ([11]; 48 h): 20 µg/mL; MIC ([12]; 48 h): 2 µg/mL; MIC ([13]; 48 h): 1 µg/mL; MIC ([14]; ATCC6, 24 h): 1 µg/mL; MIC ([16]; 24 h): 2 µg/mL; MIC ([16]; 48 h): 2 µg/mL
[N-]=[N+]=NCC1=C(C(=O)O)N2C(=O)C(NC(=O)/C(=N\OCCSC(=N)N)c3csc(N)n3)C2SC1 (stereo not drawn) [Example 5, Internal salt of syn isomer of 3-azidomethyl-7-[2-(2-amino-4-thiazolyl)-2-(2-aminoiminomethylthioethoxyimino)-acetamido]-ceph-3-eme-4-carboxylic acid]	2	3	3	3	0.5	0.5	0.2	0.2	–	3	0.2	0.2	10	–	–	–	–	–	< 0.02	0.05	MIC ([4]; 24 h, read-out: MIC): 1 µg/mL; MIC ([4]; 48 h, read-out: MIC): 1 µg/mL; MIC ([6]; ATCC9, 24 h, read-out: MIC): 2 µg/mL; MIC ([6]; ATCC9, 48 h, read-out: MIC): 2 µg/mL; MIC ([7]; 24 h, read-out: MIC): 2 µg/mL; MIC ([8]; EXP.52145, 24 h, read-out: MIC): 1 µg/mL; MIC ([8]; EXP.52145, 48 h, read-out: MIC): 1 µg/mL; MIC ([10]; DU48, 24 h, read-out: MIC): 10 µg/mL; MIC ([12]; 24 h, read-out: MIC): 1 µg/mL; MIC ([12]; 48 h, read-out: MIC): 1 µg/mL; MIC ([13]; 24 h, read-out: MIC): 1 µg/mL; MIC ([13]; 48 h, read-out: MIC): 1 µg/mL; MIC ([14]; ATCC6, 24 h, read-out: MIC): 1 µg/mL; MIC ([14]; ATCC6, 48 h, read-out: MIC): 1 µg/mL; MIC ([15]; UC1, 24 h, read-out: MIC): 1 µg/mL; MIC ([15]; UC1, 48 h, read-out: MIC): 2 µg/mL; MIC ([16]; 24 h, read-out: MIC): 1 µg/mL; MIC ([16]; 48 h, read-out: MIC): 2 µg/mL
Cc1nnc(SCC2=C(C(=O)O)N3C(=O)C(NC(=O)/C(=N\OCCSC(=N)N)c4csc(N)n4)C3SC2)s1 (stereo not drawn) [Example 6, Internal salt of syn isomer of 3-[(2-methyl-1,3,4-thiadiazol-5-yl)-thiomethyl]-7-[2-(2-amino-4-thiazolyl)-2-(2-aminoiminomethylthioethoxyimino)-acetamido]-ceph-3-eme-4-carboxylic acid]	1	2	–	–	2	2	0.1	0.1	5	5	1	1	–	2	2	2	2	2	0.05	0.05	MIC ([2]; Enterobacter cloacae, 681, 24 h, read-out: MIC): 10 µg/mL; MIC ([2]; Enterobacter cloacae, 681, 48 h, read-out: MIC): 10 µg/mL; MIC ([4]; 24 h, read-out: MIC): 1 µg/mL; MIC ([4]; 48 h, read-out: MIC): 1 µg/mL; MIC ([6]; ATCC9, 24 h, read-out: MIC): 5 µg/mL; MIC ([7]; 24 h, read-out: MIC): 5 µg/mL; MIC ([8]; EXP.52145, 24 h, read-out: MIC): 1 µg/mL; MIC ([8]; EXP.52145, 48 h, read-out: MIC): 1 µg/mL; MIC ([12]; 48 h, read-out: MIC): 3 µg/mL; MIC ([13]; 48 h, read-out: MIC): 3 µg/mL; MIC ([14]; ATCC6, 24 h, read-out: MIC): 1 µg/mL; MIC ([16]; 24 h): 2 µg/mL; MIC ([16]; 48 h): 2 µg/mL
